Measurements reported in patent US20140303164A1, “THERAPEUTIC COMPOUNDS” (Gilead Sciences, Inc., priority 2013, published 2014).

Key:
[1] = test system: HIV-IIIb; test: Test A: Antiviral Assay in MT4 Cells; format: cell-based, HIV-1; conditions: Human immunodeficiency virus 1, IIIB, MT4, 120 h; for inhibition at 0.2 µM: read-out: % inhibition at 0.2 μM; for inhibition at 2 µM: read-out: % inhibition at 2 μM
Method: Test A: Antiviral Assay in MT4 Cells
MT-4 cells were next mixed with HIV-IIIb at an m.o.i of 0.003 for 1 hour, after which time 35 μL of virus/cell mixture (2000 cells) was immediately added to each well containing 40 μL of diluted compound. The plates were then incubated at 37° C. for 5 days. […] Cell lysis was carried out by incubating at room temperature for 10 min and then chemiluminescence was read.

[2] = Test B: Cytotoxicity Assay; format: cell-based; conditions: human, uninfected MT-4 cells, same protocol as Test A
Outline: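 Uninfected MT-4 cells (2000 per well) incubated with diluted compound at 37° C. for 5 days, following the antiviral protocol without HIV-IIIb.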

Row | Structure (SMILES) | inhibition at 0.2 µM [1] [%] | inhibition at 2 µM [1] [%] | CC50 at 5 days [2] [µM]
1 | CNCC(=O)Nc1nn(C)c2c(-c3ccc(C#CC(C)(C)O)nc3[C@H](Cc3cc(F)cc(F)c3)NC(=O)Cn3nc(C(F)F)c4c3C(F)(F)[C@@H]3C[C@H]43)ccc(Cl)c12 [Compound 101, N—((S)-1-(3-(4-chloro-1-methyl-3-(2-(methylamino)acetamido)-1H-indazol-7-yl)-6-(3-hydroxy-3-methylbut-1-yn-1-yl)pyridin-2-yl)-2-(3,5-difluorophenyl)ethyl)-2-((3bS,4aR)-3-(difluoromethyl)-5,5-difluoro-3b,4,4a,5-tetrahydro-1H-cyclopropa[3,4]cyclopenta[1,2-c]pyrazol-1-yl)acetamide] | 95 | 95 | 6.53
2 | CCC(O)(C#Cc1ccc(-c2cccc3c(NS(C)(=O)=O)nn(C)c23)c([C@H](Cc2cc(F)cc(F)c2)NC(=O)Cn2nc(C(F)(F)F)c3c2C(F)(F)[C@@H]2C[C@H]32)n1)CC [Compound 66, 2-((3bS,4aR)-5,5-difluoro-3-(trifluoromethyl)-3b,4,4a,5-tetrahydro-1H-cyclopropa[3,4]cyclopenta[1,2-c]pyrazol-1-yl)-N—((S)-2-(3,5-difluorophenyl)-1-(6-(3-ethyl-3-hydroxypent-1-yn-1-yl)-3-(1-methyl-3-(methylsulfonamido)-1H-indazol-7-yl)pyridin-2-yl)ethyl)acetamide] | 97 | 97 | 6.96
3 | Cn1nc(NS(C)(=O)=O)c2c(Cl)ccc(-c3ccc(C#CC(C)(C)O)nc3[C@H](Cc3cc(F)cc(F)c3)NC(=O)Cn3nc4c(c3Cl)[C@H]3C[C@H]3C4(F)F)c21 [Compound 140M, N—((S)-1-(3-(4-chloro-1-methyl-3-(methylsulfonamido)-1H-indazol-7-yl)-6-(3-hydroxy-3-methylbut-1-yn-1-yl)pyridin-2-yl)-2-(3,5-difluorophenyl)ethyl)-2-((3b-S,4aR)-3-chloro-5,5-difluoro-3b,4,4a,5-tetrahydro-2H-cyclopropa[3,4]cyclopenta[1,2-c]pyrazol-2-yl)acetamide] | 98 | 98 | 20.4
4 | Cn1nc(NC(=O)CO)c2c(Cl)ccc(-c3ccc(C#CC(C)(C)O)nc3[C@H](Cc3cc(F)cc(F)c3)NC(=O)Cn3nc(C(F)F)c4c3C(F)(F)[C@@H]3C[C@H]43)c21 [Compound 88, N—((S)-1-(3-(4-chloro-3-(2-hydroxyacetamido)-1-methyl-1H-indazol-7-yl)-6-(3-hydroxy-3-methylbut-1-yn-1-yl)pyridin-2-yl)-2-(3,5-difluorophenyl)ethyl)-2-((3b-S,4aR)-3-(difluoromethyl)-5,5-difluoro-3b,4,4a,5-tetrahydro-1H-cyclopropa[3,4]cyclopenta[1,2-c]pyrazol-1-yl)acetamide] | 100 | 100 | 8.49
5 | Cn1nc(NS(C)(=O)=O)c2c(Cl)ccc(-c3ccc(C#CC(C)(O)C(F)F)nc3[C@H](Cc3cc(F)cc(F)c3)NC(=O)Cn3nc(C(F)(F)F)c4c3C(F)(F)[C@@H]3C[C@H]43)c21 (stereo partly drawn) [Compound 157G, N-((1S)-1-(3-(4-chloro-1-methyl-3-(methylsulfonamido)-1H-indazol-7-yl)-6-(4,4-difluoro-3-hydroxy-3-methylbut-1-yn-1-yl)pyridin-2-yl)-2-(3,5-difluorophenyl)ethyl)-2-((3b-S,4aR)-5,5-difluoro-3-(trifluoromethyl)-3b,4,4a,5-tetrahydro-1H-cyclopropa[3,4]cyclopenta[1,2-c]pyrazol-1-yl)acetamide] | 87 | 87 | 10.9
6 | Cn1nc(NC(=O)C(C)(C)O)c2c(Cl)ccc(-c3ccc(C#CC(C)(C)O)nc3[C@H](Cc3cc(F)cc(F)c3)NC(=O)Cn3nc(C(F)F)c4c3C(F)(F)[C@@H]3C[C@H]43)c21 [Compound 89, N-(4-chloro-7-(2-((S)-1-(2-((3b-S,4aR)-3-(difluoromethyl)-5,5-difluoro-3b,4,4a,5-tetrahydro-1H-cyclopropa[3,4]cyclopenta[1,2-c]pyrazol-1-yl)acetamido)-2-(3,5-difluorophenyl)ethyl)-6-(3-hydroxy-3-methylbut-1-yn-1-yl)pyridin-3-yl)-1-methyl-1H-indazol-3-yl)-2-hydroxy-2-methylpropanamide] | 95 | 95 | 7.77
7 | CC(C)(O)C#Cc1ccc(-c2ccc(Cl)n3c(N)nnc23)c([C@H](Cc2cc(F)cc(F)c2)NC(=O)Cn2nc(C(F)F)c3c2C(F)(F)[C@@H]2C[C@H]32)n1 [Compound 106E, N—((S)-1-(3-(3-amino-5-chloro-[1,2,4]triazolo[4,3-a]pyridin-8-yl)-6-(3-hydroxy-3-methylbut-1-yn-1-yl)pyridin-2-yl)-2-(3,5-difluorophenyl)ethyl)-2-((3b-S,4aR)-3-(difluoromethyl)-5,5-difluoro-3b,4,4a,5-tetrahydro-1H-cyclopropa[3,4]cyclopenta[1,2-c]pyrazol-1-yl)acetamide] | 95 | 96 | 12.4
8 | Cn1nc(NS(C)(=O)=O)c2c(Cl)ccc(-c3ccc(C#CC(C)(C)O)nc3[C@H](Cc3cc(F)cc(F)c3)NC(=O)Cn3ncc4c3C(F)(F)[C@@H]3C[C@H]43)c21 [Compound 150, N—((S)-1-(3-(4-chloro-1-methyl-3-(methylsulfonamido)-1H-indazol-7-yl)-6-(3-hydroxy-3-methylbut-1-yn-1-yl)pyridin-2-yl)-2-(3,5-difluorophenyl)ethyl)-2-((3bS,4aR)-5,5-difluoro-3b,4,4a,5-tetrahydro-1H-cyclopropa[3,4]cyclopenta[1,2-c]pyrazol-1-yl)acetamide] | 87 | 87 | 28.9
9 | O=C(Cn1nc(C(F)F)c2c1C(F)(F)CCC2(F)F)N[C@@H](Cc1cc(F)cc(F)c1)c1nc(-c2c[nH]nn2)ccc1-c1cnc2[nH]ccc2c1 [Compound 16C, (S)—N-(1-(3-(1H-pyrrolo[2,3-b]pyridin-5-yl)-6-(1H-1,2,3-triazol-4-yl)pyridin-2-yl)-2-(3,5-difluorophenyl)ethyl)-2-(3-(difluoromethyl)-4,4,7,7-tetrafluoro-4,5,6,7-tetrahydro-1H-indazol-1-yl)acetamide] | 23 | 65 | 3.67
10 | CC(C)(C)C#Cc1ccc(-c2ccc(Cl)n3c(NS(C)(=O)=O)nnc23)c([C@H](Cc2cc(F)cc(F)c2)NC(=O)Cn2nc(C(F)F)c3c2C(F)(F)[C@@H]2C[C@H]32)n1 [Compound 118, N—((S)-1-(3-(5-chloro-3-(methylsulfonamido)-[1,2,4]triazolo[4,3-a]pyridin-8-yl)-6-(3,3-dimethylbut-1-yn-1-yl)pyridin-2-yl)-2-(3,5-difluorophenyl)ethyl)-2-((3b-S,4aR)-3-(difluoromethyl)-5,5-difluoro-3b,4,4a,5-tetrahydro-1H-cyclopropa[3,4]cyclopenta[1,2-c]pyrazol-1-yl)acetamide] | 96 | 96 | 23.9
11 | CC(C)(O)C#Cc1ccc(-c2ccc(Cl)c3c(NS(C)(=O)=O)n[nH]c23)c([C@H](Cc2cc(F)cc(F)c2)NC(=O)Cn2nc(C(F)(F)F)c3c2C(F)(F)[C@@H]2C[C@H]32)n1 [Compound 109, N—((S)-1-(3-(4-chloro-3-(methylsulfonamido)-1H-indazol-7-yl)-6-(3-hydroxy-3-methylbut-1-yn-1-yl)pyridin-2-yl)-2-(3,5-difluorophenyl)ethyl)-2-((3b-S,4aR)-5,5-difluoro-3-(trifluoromethyl)-3b,4,4a,5-tetrahydro-1H-cyclopropa[3,4]cyclopenta[1,2-c]pyrazol-1-yl)acetamide] | 97 | 97 | 29.6
12 | CC(C)(O)C#Cc1ccc(-c2cc(F)c(F)c(C(N)=O)c2)c([C@H](Cc2cc(F)cc(F)c2)NC(=O)Cn2nc(C(F)(F)F)c3c2C(F)(F)[C@@H]2C[C@H]32)n1 [Compound 30, 5-(2-((S)-1-(2-((3bS,4aR)-5,5-difluoro-3-(trifluoromethyl)-3b,4,4a,5-tetrahydro-1H-cyclopropa[3,4]cyclopenta[1,2-c]pyrazol-1-yl)acetamido)-2-(3,5-difluorophenyl)ethyl)-6-(3-hydroxy-3-methylbut-1-yn-1-yl)pyridin-3-yl)-2,3-difluorobenzamide] | 1 | 91 | 8.58
13 | Cn1nc(NS(C)(=O)=O)c2cccc(-c3ccc(C#CC(C)(C)O)nc3[C@H](Cc3cc(F)cc(F)c3)NC(=O)Cn3nc(C(F)(F)F)c4c3C3CC3CO4)c21 (stereo partly drawn) [Compound 67I, N—((S)-2-(3,5-difluorophenyl)-1-(6-(3-hydroxy-3-methylbut-1-yn-1-yl)-3-(1-methyl-3-(methylsulfonamido)-1H-indazol-7-yl)pyridin-2-yl)ethyl)-2-(3-(trifluoromethyl)-5,5a,6,6a-tetrahydro-1H-cyclopropa[4,5]pyrano[3,2-c]pyrazol-1-yl)acetamide] | 94 | 94 | 21.5
14 | CNc1nnc2c(-c3ccc(C#CC(C)(C)O)nc3[C@H](Cc3cc(F)cc(F)c3)NC(=O)Cn3nc(C(F)F)c4c3C(F)(F)[C@@H]3C[C@H]43)cccn12 [Compound 76F, 2-((3bS,4aR)-3-(difluoromethyl)-5,5-difluoro-3b,4,4a,5-tetrahydro-1H-cyclopropa[3,4]cyclopenta[1,2-c]pyrazol-1-yl)-N—((S)-2-(3,5-difluorophenyl)-1-(6-(3-hydroxy-3-methylbut-1-yn-1-yl)-3-(3-(methylamino)-[1,2,4]triazolo[4,3-a]pyridin-8-yl)pyridin-2-yl)ethyl)acetamide] | 98 | 98 | 22.6
